Test [1] addresses T1, wild type PKR (Homo sapiens, UniProt P30613). Nature of the test: PKR (wild type) enzyme AC50 assay, LDH/NADH-coupled, absorbance at 340 nm. Type of test: biochemical. To be noted: for EC50: Table 4, AC50, enzyme assay, read-out: PKR WT; for AC50: Table 2, enzyme assay, read-out: PKR WT AC50. In short, it runs like this:
(§1)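 LDH/NADH coupling; 40-400 ng/well enzyme; PEP 0.1-0.5 mM, ADP 0.2-1.65 mM, NADH 180 μM, LDH 0.5 units; Tris pH 7.5/KCl/MgCl2 buffer with DTT, BSA. 60 min RT compound preincubation, ADP start, A340 at RT. 11-point 3-fold series from 100 μM.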

Another test concerns the target PKR R510Q (Homo sapiens, UniProt P30613, R510Q). In words: PKR mutant assay (R510Q), AC50, LDH/NADH-coupled, absorbance at 340 nm. Type of test: biochemical. The note with it: for EC50: Table 4, AC50, enzyme assay, read-out: PK R510Q; for AC50: read-out: PK R510Q AC50. The gist of the method: as §1
For another test, the target named is PKR K410E (Homo sapiens, UniProt P30613, K410E). In words: PKR mutant assay (K410E), AC50, LDH/NADH-coupled, absorbance at 340 nm. Format: biochemical. The note with it: for EC50: Table 4, AC50, enzyme assay; for AC50: Table 2, enzyme assay. In short, it runs like this:
as §1

Test [2] concerns the target T1, wild type PKR. Nature of the test: Cell based ATP assay in purified red blood cells (Cell-Titer-Glo). Also on record: endogenous in cells; host or cells: purified red blood cells from healthy volunteers. To be noted: overnight at 37° C., ATP levels; for EC50: Table 4, AC50, RBCs; for AC50 / Cell based ATP assay AC50: Table 2, RBCs. The gist of the method:
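ATP levels were quantified by Cell-Titer-Glo after overnight 37 °C exposure of cells to compound (1:4 dilution series, 0.1% DMSO final). The cells were human erythrocytes, filter-purified to remove leukocytes and plated at 1×10^7 cells/mL in AGAM medium.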

The term AC50 denotes the midpoint of the concentration-response curve, whichever way the signal moves.

The structures appear in SMILES notation.

T1 sequence (P30613 whole entry): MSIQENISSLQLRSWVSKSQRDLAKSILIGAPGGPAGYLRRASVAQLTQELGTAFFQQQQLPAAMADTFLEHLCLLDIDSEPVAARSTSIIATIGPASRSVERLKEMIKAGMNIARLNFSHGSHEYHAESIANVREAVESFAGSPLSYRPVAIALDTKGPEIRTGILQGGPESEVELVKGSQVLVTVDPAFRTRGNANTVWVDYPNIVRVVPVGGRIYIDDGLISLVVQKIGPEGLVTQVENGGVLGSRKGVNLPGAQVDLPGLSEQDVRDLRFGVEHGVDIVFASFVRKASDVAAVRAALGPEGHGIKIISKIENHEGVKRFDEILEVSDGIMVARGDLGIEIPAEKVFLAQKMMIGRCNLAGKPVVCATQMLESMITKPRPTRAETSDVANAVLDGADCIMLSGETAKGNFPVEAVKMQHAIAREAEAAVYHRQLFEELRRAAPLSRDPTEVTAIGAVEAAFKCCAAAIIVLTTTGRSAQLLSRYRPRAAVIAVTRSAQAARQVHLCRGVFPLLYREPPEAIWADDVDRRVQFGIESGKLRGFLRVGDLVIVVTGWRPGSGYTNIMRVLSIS
PKR R510Q, sequence (P30613 whole entry R510Q): as the sequence (P30613 whole entry) above, with R510Q counted along it
PKR K410E, sequence (P30613 whole entry K410E): as the sequence (P30613 whole entry) above, with K410E counted along it

As for `CC(c1cc[nH]n1)c1nc2c(s1)c1cnn(Cc3cccc4[nH]ncc34)c(=O)c1n2C` (stereo not drawn) [Compound 195], the EC50 was below 300 nM at wild type PKR [1], below 300 nM at PKR R510Q, below 300 nM on PKR K410E and at most 1000 nM at wild type PKR [2].

For `Cc1cccc(Cn2ncc3c4sc(C)nc4n(C)c3c2=O)n1` [Compound 17], the AC50 at wild type PKR [1] is below 300 nM; on PKR R510Q (Table 2, enzyme assay) it was below 300 nM; on PKR K410E, below 300 nM; on wild type PKR [2], at most 1000 nM.

Consider `Cn1c2nc(Cc3cnc(N)s3)sc2c2cnn(Cc3cccc4[nH]ncc34)c(=O)c21` [Compound 229], for which the EC50 was 301 to 800 nM at wild type PKR [1], 301 to 800 nM at PKR R510Q, 301 to 800 nM at PKR K410E and above 1000 nM at wild type PKR [2].

As to `Cc1nc2c(s1)c1cnn(Cc3cccc(F)n3)c(=O)c1n2C` [Compound 28], the AC50 is above 800 nM on wild type PKR [1]; above 800 nM at PKR R510Q (Table 2, enzyme assay); above 800 nM at PKR K410E; above 1000 nM at wild type PKR [2].

Regarding `Cn1c2nc(C#N)sc2c2cnn(Cc3cccc(N)n3)c(=O)c21` [Compound 147], the AC50 at wild type PKR [1] was below 300 nM; at PKR R510Q (Table 2, enzyme assay), 301 to 800 nM; on PKR K410E, below 300 nM; on wild type PKR [2], at most 1000 nM.

`Cn1c2nc(Cc3c[nH]nn3)sc2c2cnn(Cc3cccc(OC(F)(F)F)c3)c(=O)c21` [Compound 290]: the EC50 is below 300 nM on wild type PKR [1], below 300 nM at PKR R510Q, below 300 nM on PKR K410E and at most 1000 nM at wild type PKR [2].

As to `COc1cccc(Cn2ncc3c4sc([S+](C)[O-])nc4n(C)c3c2=O)c1` (stereo not drawn) [Compound 24], the AC50 at wild type PKR [1] is below 300 nM; at PKR R510Q (Table 2, enzyme assay) it was below 300 nM; at PKR K410E, below 300 nM; at wild type PKR [2] it was above 1000 nM.

For the molecule `Cc1nc2c(s1)c1cnn(Cc3cc[nH]n3)c(=O)c1n2C` [Compound 68], the half-maximal activity concentration (AC50) at wild type PKR [1] was below 300 nM; at PKR R510Q (Table 2, enzyme assay), below 300 nM; on PKR K410E, below 300 nM; at wild type PKR [2] it was at most 1000 nM.

Take `Cn1c2nc(CO)sc2c2cnn(Cc3cccc4[nH]ncc34)c(=O)c21` [Compound 105]: the AC50 on wild type PKR [1] is below 300 nM; on PKR R510Q (Table 2, enzyme assay), below 300 nM; at PKR K410E, below 300 nM; on wild type PKR [2] it was at most 1000 nM.

`COc1cccc(Cn2ncc3c4sc(C(C)(C)O)nc4n(C)c3c2=O)c1` [Compound 63]: the AC50 at wild type PKR [1] was below 300 nM; on PKR R510Q (Table 2, enzyme assay), below 300 nM; at PKR K410E it was below 300 nM; at wild type PKR [2], above 1000 nM.

As to `Cn1c2nc(Cc3cc[nH]n3)sc2c2cnn(Cc3ccc4ccccc4n3)c(=O)c21` [Compound 111], the AC50 is below 300 nM on wild type PKR [1]; below 300 nM at PKR R510Q (Table 2, enzyme assay); below 300 nM at PKR K410E; at most 1000 nM at wild type PKR [2].

As to `Cn1c2nc(Cn3cccn3)sc2c2cnn(Cc3cccc4[nH]ncc34)c(=O)c21` [Compound 292], the EC50 on wild type PKR [1] was below 300 nM; at PKR R510Q, below 300 nM; at PKR K410E it was below 300 nM; at wild type PKR [2], at most 1000 nM.

Regarding `CSc1nc2c(s1)c1cnn(Cc3cccc(S(N)(=O)=O)c3)c(=O)c1n2C` [Compound 110], the AC50 on wild type PKR [1] is above 800 nM; on PKR R510Q (Table 2, enzyme assay), above 800 nM; on PKR K410E, above 800 nM. The “Cell based ATP assay AC50” value at wild type PKR [2] was “No Fit”.

Consider `Cn1c2nc([S+](C)[O-])sc2c2cnn(Cc3ccnc(N)c3)c(=O)c21` (stereo not drawn) [Compound 78], for which the AC50 at wild type PKR [1] was above 800 nM; on PKR R510Q (Table 2, enzyme assay) it was above 800 nM; at PKR K410E, above 800 nM; on wild type PKR [2] it was at most 1000 nM.

`Cn1c2nc(Cc3cn[nH]n3)sc2c2cnn(Cc3cccc(OC(F)(F)F)c3F)c(=O)c21` [Compound 329]: the EC50 was 301 to 800 nM at wild type PKR [1], below 300 nM on PKR R510Q, 301 to 800 nM on PKR K410E and at most 1000 nM on wild type PKR [2].

Take `Cc1nc2c(s1)c1cnn(Cc3c[nH]cn3)c(=O)c1n2C` [Compound 42]: the AC50 at wild type PKR [1] was above 800 nM; on PKR R510Q (Table 2, enzyme assay), above 800 nM; at PKR K410E, above 800 nM; on wild type PKR [2], above 1000 nM.

`COc1cccc(Cn2ncc3c4sc(CO)nc4n(C)c3c2=O)c1` [Compound 51]: the AC50 at wild type PKR [1] is below 300 nM; at PKR R510Q (Table 2, enzyme assay), below 300 nM; on PKR K410E it was below 300 nM; at wild type PKR [2], at most 1000 nM.

Take `Cn1c2nc(Cc3cccc(N)n3)sc2c2cnn(Cc3cccc4[nH]ncc34)c(=O)c21` [Compound 276]: the EC50 on wild type PKR [1] was below 300 nM; at PKR R510Q, below 300 nM; at PKR K410E, below 300 nM; at wild type PKR [2], at most 1000 nM.

For `COc1cccc(Cn2ncc3c4sc([S+]([O-])c5ccccc5)nc4n(C)c3c2=O)c1` (stereo not drawn) [Compound 35], the AC50 at wild type PKR [1] is 301 to 800 nM; on PKR R510Q (Table 2, enzyme assay), 301 to 800 nM; at PKR K410E, 301 to 800 nM; on wild type PKR [2] it was above 1000 nM.

`COc1cccc(Cn2ncc3c4sc(Sc5ccccc5)nc4n(C)c3c2=O)c1` [Compound 34]: the AC50 on wild type PKR [1] is below 300 nM; on PKR R510Q (Table 2, enzyme assay), below 300 nM; at PKR K410E, below 300 nM; at wild type PKR [2] it was at most 1000 nM.

For the molecule `Cn1c2nc(Cc3cc[nH]n3)sc2c2cnn(Cc3ccc4cc[nH]c4n3)c(=O)c21` [Compound 380], the EC50 was below 300 nM on wild type PKR [1], below 300 nM on PKR R510Q, below 300 nM on PKR K410E and at most 1000 nM at wild type PKR [2].

In the case of `Cn1c2nc(Cc3cc[nH]n3)sc2c2cnn(Cc3ccc4c(c3)OCO4)c(=O)c21` [Compound 226], the EC50 at wild type PKR [1] was below 300 nM; on PKR R510Q, below 300 nM; on PKR K410E it was below 300 nM; on wild type PKR [2], at most 1000 nM.

As to `Cc1nc2c(s1)c1cnn(CCOCCO)c(=O)c1n2C` [Compound 54], the AC50 at wild type PKR [1] and at PKR K410E was above 800 nM in each case. Moreover, the “PK R510Q AC50” value on PKR R510Q (Table 2, enzyme assay) was “No Fit”. Also, the “Cell based ATP assay AC50” value at wild type PKR [2] was “No Fit”.

`Cc1nc2c(s1)c1cnn(Cc3cn[nH]c3)c(=O)c1n2C` [Compound 72]: the AC50 on wild type PKR [1] was above 800 nM; at PKR R510Q (Table 2, enzyme assay) it was above 800 nM; on PKR K410E it was above 800 nM; on wild type PKR [2], above 1000 nM.

In the case of `COC(=O)Cc1nc2c(s1)c1cnn(Cc3cccc4[nH]ncc34)c(=O)c1n2C` [Compound 131], the AC50 is 301 to 800 nM on wild type PKR [1]; below 300 nM on PKR R510Q (Table 2, enzyme assay); below 300 nM at PKR K410E; above 1000 nM on wild type PKR [2].

Regarding `Cn1c2nc(Cc3cnn[nH]3)sc2c2cnn(Cc3cccc4[nH]ncc34)c(=O)c21` [Compound 217], the EC50 at wild type PKR [1] was below 300 nM; at PKR R510Q, below 300 nM; at PKR K410E, below 300 nM; at wild type PKR [2], at most 1000 nM.

In the case of `Cc1nc2c(s1)c1cnn(Cc3cccc([N+](=O)[O-])c3)c(=O)c1n2C` [Compound 47], the AC50 at wild type PKR [1] was above 800 nM; on PKR R510Q (Table 2, enzyme assay), above 800 nM; at PKR K410E, above 800 nM. The “Cell based ATP assay AC50” value at wild type PKR [2] is “No Fit”.
